According to PMC5029964 (Journal of the American Chemical Society, 2016):
Entries after “also recorded” stand apart in the source; their conditions may differ.

Tests used:
Fur = details: read-out: Kd for Fe(II) binding; cited from earlier work
PchA [1] = target: T1, PchA (Pseudomonas aeruginosa, UniProt Q51508); details: cited from earlier work
T1 sequence (Q51508 1-476): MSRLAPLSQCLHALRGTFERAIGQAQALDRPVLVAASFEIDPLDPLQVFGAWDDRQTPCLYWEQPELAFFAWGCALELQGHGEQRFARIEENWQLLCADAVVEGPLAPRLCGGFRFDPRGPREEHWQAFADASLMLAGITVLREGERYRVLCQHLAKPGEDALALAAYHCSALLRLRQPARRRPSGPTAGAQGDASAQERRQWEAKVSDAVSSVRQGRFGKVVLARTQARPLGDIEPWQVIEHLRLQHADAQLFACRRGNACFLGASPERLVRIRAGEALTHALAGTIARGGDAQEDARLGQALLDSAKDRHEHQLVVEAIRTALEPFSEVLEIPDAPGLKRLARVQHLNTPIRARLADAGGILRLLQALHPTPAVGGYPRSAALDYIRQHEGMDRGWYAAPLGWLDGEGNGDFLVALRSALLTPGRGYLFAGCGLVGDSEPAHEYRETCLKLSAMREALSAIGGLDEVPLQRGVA

[2] = system: MST enzymes (PchA, EntC, Irp9); assay: Ligand binding rates by stopped-flow intrinsic fluorescence; details: all three enzymes
PchB = target: T2, PchB (Pseudomonas aeruginosa, UniProt Q51507); assay: Steady-state PchB lyase activity; type: biochemical
T2 sequence (Q51507 1-101): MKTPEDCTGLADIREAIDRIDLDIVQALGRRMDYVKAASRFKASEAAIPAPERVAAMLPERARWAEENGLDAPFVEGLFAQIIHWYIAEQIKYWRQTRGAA

PchA [3] = target: T1, PchA; type: biochemical
EntC = target: T3, EntC (Escherichia coli, UniProt P0AEJ2); assay: Steady-state chorismate isomerase activity, PchB-coupled salicylate fluorescence; type: biochemical
T3 sequence (P0AEJ2 1-391): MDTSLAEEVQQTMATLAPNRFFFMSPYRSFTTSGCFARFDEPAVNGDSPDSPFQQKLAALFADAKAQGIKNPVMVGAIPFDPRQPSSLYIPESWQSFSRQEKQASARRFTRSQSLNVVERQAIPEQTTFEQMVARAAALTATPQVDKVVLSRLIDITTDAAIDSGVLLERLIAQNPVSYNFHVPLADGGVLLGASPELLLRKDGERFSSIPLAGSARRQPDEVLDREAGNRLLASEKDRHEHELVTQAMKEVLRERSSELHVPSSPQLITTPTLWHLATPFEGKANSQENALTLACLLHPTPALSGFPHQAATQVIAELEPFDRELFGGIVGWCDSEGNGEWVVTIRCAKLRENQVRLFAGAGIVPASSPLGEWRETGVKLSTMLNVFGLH

Irp9 = Irp9 (Yersinia enterocolitica, UniProt Q9X9I8); type: biochemical; details: saturating chorismate 20 μM; magnesium 0–20 mM
PchA, EntC, and Irp9 = assay: Dissociation constants by intrinsic fluorescence; type: binding; details: read-out: Kd of E·Mg complexes (range over all three enzymes)

O=S(=O)([O-])[O-].O=S(=O)([O-])[O-].[Fe+2].[NH4+].[NH4+] [Fe(II), ferrous ammonium sulfate]
Kd (Fur): 1.2 µM | effect on PchA activity (PchA [1]; 100 μM): did not alter PchA activity

CN1[C@@H]([C@H]2CSC(c3ccccc3O)=N2)SC[C@H]1C(=O)O [pyochelin]
feedback inhibition of PchA (PchA [1]): no inhibition

N[C@@H](CS)C(=O)O [cysteine]
feedback inhibition of PchA (PchA [1]): no inhibition

[Cl-].[Cl-].[Mg+2] [magnesium, magnesium chloride]
observed rate constant of ligand binding (bound from ∼1.0 ms dead time) ([2]; binding complete within stopped-flow dead time, 25 °C): greater than 1600 s^–1 | association rate constants (order of magnitude) ([2]; suggested from dead-time bound): ~10^8 M^–1 s^–1 | binding of and inhibition by magnesium (PchB): does not bind and is not inhibited | magnesium concentration at which maximal velocity was observed (PchA [3]): approximately 0.5 mM | magnesium concentrations at which inhibition is noted (PchA [3]; steady state): over 0.5 mM | magnesium concentration at which maximal velocity was observed (EntC; saturating chorismate 200 μM, magnesium 0–20 mM): approximately 0.5 mM | magnesium concentrations at which inhibition is noted (EntC; steady state): over 0.5 mM | magnesium inhibition in the steady state (shape of magnesium dependence) (Irp9): normal hyperbolic shape; also recorded: did not exhibit the same inhibition | Kd (PchA, EntC, and Irp9): 130 to 190 µM
